Reference: patent publication US9763985B2, “Antigen-specific central-memory T cell preparations having high CD4+ fraction” (priority 2011, dated 2017)

Legend:
Type in all cases: cell-based, human
CMV-specific T cells [1] = assay: CD4+ and CD8+ expression of CMV-specific T cells after 18 days of expansion (flow cytometry); conditions: for CD4+/CD8+ T cell ratio: after 18 days of expansion, Sirolimus LD 20 nmol/l or VLD 2 nmol/l, aIL2R 20 μg/mL, every 2 days; for CD4+ T cell proportion in the culture: after 18 d expansion
Protocol: (§1) CMV-specific T-cells were enriched and expanded using a previously described technique (Becker et al., Nat. Med. 2001, 7, 1159-62). Briefly, 4×10^7 autologous PBMCs were stimulated for 6 h with 1 μg/mL overlapping human cytomegalovirus phosphoprotein 65 (pp65) and immediately early 1 protein (IE1) peptide pools (JPT Peptide Technologies). Pools consisted of 15-mer peptides overlapping by 10 amino acids and were dissolved in dimethyl sulfoxide (DMSO). IFNγ producing cells underwent positive selection by the IFNγ capture-system (Miltenyi Biotech) according to the protocol provided by the manufacturer. IFNγ+ cells were next cultured for 18 days in 24-well plates together with 10^7 irradiated autologous PBMCs using RPMI 1640 supplemented with 10% fetal bovine serum 1% Penicillin/Streptomycin (Biochrom) and 50 U/mL rIL2 (Chiron) and 10 ng/mL rIL7 (Cellgenix) or solitary when indicated elsewise. Where indicated, either mTor-inhibitor (sirolimus, Sigma-Aldrich) at very low dose (VLD, 2 nM) and low dose (LD, 20 nM) or IL2 receptor antagonist (Basiliximab, Simulect, Novartis) at 20 μg/mL were added from day 1 on every two days together with subsequent media supplementation.
Following antigen specific stimulation, cytokine secretion (IFNγ, TNFα and IL2) and activation marker expression (CD137 and CD154) were determined by intracellular fluorescence staining. All antibodies were purchased from Becton Dickinson (BD), except indicated. Virus infected monocytes and peptide-pool loaded LCL or monocytes (1 μg/mL IE-1/pp65) were added to T cells in diluting ratio of 1:10. Unpulsed LCL or monocytes (DMSO incubated) display unstimulated control. For effector cytokine detection, cultured T cells were re-stimulated for 18 h in the presence of 1 μg/mL brefeldin A (Sigma-Aldrich). For CD107a (H4A3) detection, 2 μM monensin (Golgi Stop, BD) was ancillary added. Cells were then harvested and phenotype was stained with monoclonal antibodies for surface markers CD3 (UCHT1, eBioscience), CD8 (3B5, Invitrogen) and CD4 (SK3). To define memory phenotypes, T cells were extracellularly stained for CCR7 (#150503, R&D), CD62L (DREG56, Beckman Coulter), CD45RA (2H4LDH11LDB9, Beckman Coulter) and CD127 (hIL-7R-M21). To exclude dead cells, live/dead-discrimination staining-dye (Invitrogen) was added. Subsequently, cells were permeabilized with Perm2 solution (BD Biosciences) and stained for IFNγ (4S.B3, eBiosciences), TNFα (MAb11), IL2 (MQ1-17H12), CD137 (4B4-1) and CD154 (TRAP1). To define regulatory T cells, T cells were stained intranuclear for Foxp3 (259D/C7) and Helios (22F6, BioLegend). For intracellular staining of Foxp3 and Helios, Foxp3 staining kit from eBioscience was used. Cells were measured with a LSR-II flow cytometer and analyzed using FlowJo Version 8 software (Tree Star). […]

CMV-specific T cells [2] = assay: Differentiation / central memory phenotype (CCR7, CD45RA, CD62L, CD127) of expanded CMV-specific T cells; conditions: for CD62L expression on purified CD8+ T cells: CD8+ T cells cultured separately; for CD62L expression on purified CD8+ T cells / CD62L expression, CD8+ T cell bulk cultures and separately cultured CD4+ T cells: FIG. 12; for expression of the cell surface marker CD62L: CMV specific T-cell lines, day 18, six independent experiments; for central/memory T cells (CCR7+ CD45RA-): after 18 days of expansion; for expansion rate and keeping the TCM phenotype with full functionality: cultivation with both IL-2 and IL-7, FIG. 13; for CD62L expression, CD8+ T cell bulk cultures and separately cultured CD4+ T cells: rapamycin LD; for TCM formation: together with either IL-2 or IL-7, FIG. 13, four independent experiments
Protocol: as §1
(§2) Following antigen specific stimulation, cytokine secretion (IFNγ, TNFα and IL2) and activation marker expression (CD137 and CD154) were determined by intracellular fluorescence staining. All antibodies were purchased from Becton Dickinson (BD), except indicated. Virus infected monocytes and peptide-pool loaded LCL or monocytes (1 μg/mL IE-1/pp65) were added to T cells in diluting ratio of 1:10. Unpulsed LCL or monocytes (DMSO incubated) display unstimulated control. For effector cytokine detection, cultured T cells were re-stimulated for 18 h in the presence of 1 μg/mL brefeldin A (Sigma-Aldrich). For CD107a (H4A3) detection, 2 μM monensin (Golgi Stop, BD) was ancillary added. Cells were then harvested and phenotype was stained with monoclonal antibodies for surface markers CD3 (UCHT1, eBioscience), CD8 (3B5, Invitrogen) and CD4 (SK3). To define memory phenotypes, T cells were extracellularly stained for CCR7 (#150503, R&D), CD62L (DREG56, Beckman Coulter), CD45RA (2H4LDH11LDB9, Beckman Coulter) and CD127 (hIL-7R-M21). To exclude dead cells, live/dead-discrimination staining-dye (Invitrogen) was added. Subsequently, cells were permeabilized with Perm2 solution (BD Biosciences) and stained for IFNγ (4S.B3, eBiosciences), TNFα (MAb11), IL2 (MQ1-17H12), CD137 (4B4-1) and CD154 (TRAP1). To define regulatory T cells, T cells were stained intranuclear for Foxp3 (259D/C7) and Helios (22F6, BioLegend). For intracellular staining of Foxp3 and Helios, Foxp3 staining kit from eBioscience was used. Cells were measured with a LSR-II flow cytometer and analyzed using FlowJo Version 8 software (Tree Star). Lymphocytes were gated based on the FSC versus SSC profile and subsequently gated on FSC (height) versus FSC to exclude doublets.

CMV-specific T cells [3] = assay: Intracellular cytokine and activation marker staining after antigen specific stimulation with peptide loaded APCs; conditions: for quantity and quality of virus-specific T cells: in vitro
Protocol: as §2
CD4+ and CD8+ T cells (A Sirolimus; B aIL2R antagonist). Frequencies were assessed following antigen specific stimulation. Specific T-cells were stimulated for 18 h (16 h Brefeldin A) w/peptide loaded APCs in ratio of 1:10. APCs were pulsed with 1 μg/mL IE-1/pp65 peptide pool. IFNγ, TNFα and IL2 cytokine secretion and CD137 and CD154 activation marker expression were determined by intracellular staining. Cells were permeabilized and stained for IFNγ, IL2, TNFα, live/dead dye, CD3, CD4, CD8, CD137 and CD154.

[4] = test system: CMV strain NEWT infected autologous monocytes; assay: Response of expanded T cells to NEWT infected autologous monocytes / iDC; conditions: co-culture 18 h, T cell/target ratio 10:1
Protocol: Differentiated monocytes infected with CMV-related laboratory wildtype strain NEWT were used as targets. To mimic CMV-infection, autologous LCL were pulsed with 1 μg/mL overlapping CMVpp65/IE-1 peptide pools, whereas unpulsed LCL display uninfected targets. Targets were labeled with 10 μM carboxyfluorescein succinimidyl ester (CFDA-SE Molecular Probes). As controls, unpulsed LCL and uninfected differentiated monocytes (Fibroblast incubated) were labeled with 5 μM dimethyldodecylamine oxide-succinimidyl ester (Far Red; Invitrogen). Cells were co-cultured for 16 h in T cell/target ratio of 10:1. Probes were analyzed as triplicates using LSR-II flow cytometer. […] Analysis was gated on live/dead-discrimination staining-dye negative cells (near-IR fluorescent reactive dye, Invitrogen). The mean percent survival of pulsed or NEWT infected targets was calculated relative to antigen-unpulsed controls. Percentaged lytic activity of target lysis was calculated as follows: mean percent survival of targets in cultures containing defined numbers of effector T cells in comparison to control cells without T cells. […]
Following antigen specific stimulation, cytokine secretion (IFNγ, TNFα and IL2) and activation marker expression (CD137 and CD154) were determined by intracellular fluorescence staining. […] Cells were measured with a LSR-II flow cytometer and analyzed using FlowJo Version 8 software (Tree Star). […]

CMV-specific T cells [5] = assay: Expansion of CMV-specific T cell culture over 18 days; conditions: for expansion of central memory T cells (TCM): after 18 d of treatment, FIG. 4D
Protocol: as §1

[6] = day 18, after antigen specific stimulation

Molecule | CD4+/CD8+ T cell ratio (CMV-specific T cells [1]) | CD4+ T cell proportion in the culture (CMV-specific T cells [1]) | CD62L expression on purified CD8+ T cells (CMV-specific T cells [2]) | expression of the cell surface marker CD62L (CMV-specific T cells [2]) | central/memory T cells (CCR7+ CD45RA-) (CMV-specific T cells [2]) | expansion rate and keeping the TCM phenotype with full functionality (CMV-specific T cells [2]) | CD62L expression, CD8+ T cell bulk cultures and separately cultured CD4+ T cells (CMV-specific T cells [2]) | TCM formation (CMV-specific T cells [2]) | CD137 activation marker expression on CD8+ T cells (CMV-specific T cells [3]; [6]) | CD137 and CD154 activation marker expression on CD4+ T cells (CMV-specific T cells [3]; [6]) | quantity and quality of virus-specific T cells (CMV-specific T cells [3]) | response to NEWT infected autologous monocytes (IFNγ, TNFα, CD137, CD154) [4] | clonal expansion (CMV-specific T cells [5]; 18 days of expansion) | expansion of central memory T cells (TCM) (CMV-specific T cells [5])
CO[C@H]1C[C@@H]2CC[C@@H](C)[C@@](O)(O2)C(=O)C(=O)N2CCCC[C@H]2C(=O)O[C@H]([C@H](C)C[C@@H]2CC[C@@H](O)[C@H](OC)C2)CC(=O)[C@H](C)/C=C(\C)[C@@H](O)[C@@H](OC)C(=O)[C@H](C)C[C@H](C)/C=C/C=C/C=C/1C [Sirolimus] | more balanced CD4+/CD8+ T cell ratio | increased the CD4+ T cell proportion | could not be enhanced | significant prolonged expression | significantly increases central/memory T cells | best results | increased CD62L expression | promotes TCM formation | dose-dependent elevated | not impaired | enhance the quantity and quality | superiorly respond | without affecting clonal expansion | sequential expansion of both CD4 and CD8 central memory T cells
Basiliximab [aIL2R] | more balanced CD4+/CD8+ T cell ratio | – | could not be enhanced | significant prolonged expression | significantly increases central memory T cells | best results | increased CD62L expression | promotes TCM formation | dose-dependent elevated | – | – | superiorly respond | – | sequential expansion of both CD4 and CD8 central memory T cells
Daclizumab (antibody, chains of the INN, looked up, V domains shown, humanized monoclonal antibody against the alpha chain of IL2-receptor complex, CAS number 152923-59-3; b50 calls it Simulect) VH: QVQLVQSGAEVKKPGSSVKVSCKASGYTFTSYRMHWVRQAPGQGLEWIGYINPSTGYTEYNQKFKDKATITADESTNTAYMELSSLRSEDTAVYYCARGGGVFDYWGQGTLVTVSS VL: DIQMTQSPSTLSASVGDRVTITCSASSSISYMHWYQQKPGKAPKLLIYTTSNLASGVPARFSGSGSGTEFTLTISSLQPDDFATYYCHQRSTYPLTFGQGTKVEVK | – | increased the CD4+ T cell proportion | – | – | – | – | – | – | – | – | enhance the quantity and quality | – | – | –
